Reference: US20240228950A1, “MICROPATTERNED 3D HYDROGEL MICROARRAY IN FLUIDIC CHANNELS FOR SPHEROID-IN-GEL CULTURE” (NANYANG TECHNOLOGICAL UNIVERSITY, priority 2021, published 2024)

How the values were obtained:
Type in all cases: cell-based, human
HUVEC = assay: Live/dead assay (Calcein-AM/PI) of endothelial cells co-cultured with spheroids after drug treatment; settings: spheroid co-cultured with HUVEC, 3 days treatment
Protocol: The chip was incubated at 37° C. for 30 min to allow for gelation of collagen and Matrigel, following which DMEM with 10% FBS was added into the fluidic channel. For co-culture with HUVEC, the channel was coated with polydopamine (1 mg/mL) for 30 min at 37° ° C. to facilitate HUVEC adhesion and growth. The polydopamine solution was prepared by dissolving dopamine hydrochloride (Sigma Aldrich, St. Louis, MO, USA) in Tris-HCl buffer, pH 8.5. The channel was washed with 1× Phosphate Buffer Saline (PBS) three times, following which a suspension of HUVEC (1.5 million/mL) was loaded into the channel and allowed to grow for 2 days to reach confluency. The HUVEC were cultivated under static conditions.
Following that, the cells were stained with VE-Cadherin rabbit anti-human CD144 primary antibody (10 μg/mL, Enzo, Farmingdale, NY, USA) overnight at 4° C. On the next day, the cells were rinsed with 0.1% BSA in PBS three times, and fluorescently labeled with AlexaFluor 488 goat anti-rabbit secondary antibody (20 μg/mL, Life Technologies, Carlsbad, CA, USA) for 4 hr at room temperature. […]
The cells/spheroids were then imaged using a fluorescence microscope (Nikon Eclipse Ti, Melville, NY, USA). […] Fluorescence intensity of Calcein-AM and PI was analyzed using ImageJ and calculated according to equation (1) below.

[1] = tested on: HUVEC endothelial barrier; assay: Endothelial barrier integrity study (FITC-dextran 70 kDa diffusion into hydrogel island); settings: HUVEC treated with 100 and 500 nM for 3 days; 60 min dextran incubation
Protocol: To assess the endothelial barrier integrity after drug treatment in the spheroid-in-gel chip, Collagen I (3 mg/mL) and HUVEC were seeded into the chip as described in example 2C. Sub-confluent HUVEC were treated with Paclitaxel (100 and 500 nM) and cultured for 3 days prior to the barrier permeability test. Fluorescence images were taken before and after 1 hr incubation with 10 μg/mL 70 kDa dextran conjugated with fluorescein isothiocyanate (FITC, Sigma Aldrich, St. Louis, MO, USA) loaded in the fluidic channels. Fluorescence intensities within the hydrogel island were expressed as the fold change (time 60 min over 0 min) and normalized to the untreated control.

MCF-7 spheroids = assay: Live/dead assay (Calcein-AM/PI) of spheroids-in-gel after drug treatment; settings: 3 days treatment
Protocol: For spheroid-in-gel culture on the microarray chip, the PDMS surface was made hydrophilic by a 1-min plasma treatment using a plasma cleaner (PDC-002, Harrick Plasma Inc, Ithaca, NY, USA) to ensure even spreading of hydrogel onto the surface of the island. MCF-7 cells were dissociated and resuspended to a concentration of 1.7 million per mL. Collagen I was added to the suspension at 20 g/mL to enhance spheroid formation. MCF-7 suspension was loaded onto each island (3 L per island), following which the PDMS chip was inverted on top of a water reservoir for a hanging drop culture. […] The chip was maintained 37 °C for 2 days to allow for spheroid formation. […] Upon spheroid formation, the chip was subjected to media evaporation in the 37° C. incubator, following which collagen I (3 mg/mL) or Matrigel (4 mg/mL, Corning. NY, USA) was loaded onto each island (2 L per island) for in-place encapsulation of the spheroid. The chip was incubated at 37° C. for 30 min to allow for gelation of collagen and Matrigel, following which DMEM with 10% FBS was added into the fluidic channel. For co-culture with HUVEC, the channel was coated with polydopamine (1 mg/mL) for 30 min at 37° ° C. to facilitate HUVEC adhesion and growth. The polydopamine solution was prepared by dissolving dopamine hydrochloride (Sigma Aldrich, St. Louis, MO, USA) in Tris-HCl buffer, pH 8.5. The channel was washed with 1× Phosphate Buffer Saline (PBS) three times, following which a suspension of HUVEC (1.5 million/mL) was loaded into the channel and allowed to grow for 2 days to reach confluency. The HUVEC were cultivated under static conditions. […] The cells/spheroids were then imaged using a fluorescence microscope (Nikon Eclipse Ti, Melville, NY, USA). […] Fluorescence intensity of Calcein-AM and PI was analyzed using ImageJ and calculated according to equation (1) below. […] Spheroid area is determined by Hoechst staining. […] The same set of imaging parameters including exposure time and focal plane was used when acquiring the images to minimize inaccuracies in the fluorescence intensity.

## CC(=O)O[C@H]1C(=O)[C@@]2(C)[C@H]([C@H](OC(=O)c3ccccc3)[C@]3(O)C[C@H](OC(=O)[C@H](O)[C@@H](NC(=O)c4ccccc4)c4ccccc4)C(C)=C1C3(C)C)[C@]1(OC(C)=O)CO[C@@H]1C[C@@H]2O [Paclitaxel]
HUVEC
  EC death by live/dead staining (Calcein-AM/PI): higher EC death
[1]
  Endothelial barrier integrity based on diffusion of FITC-Dextran 70 kDa into the hydrogel islands: impaired the endothelial barrier integrity
MCF-7 spheroids; mono-cultured spheroids, PTX 1, 100, 500 nM
  MCF-7 death by live/dead staining (Calcein-AM/PI): higher MCF-7 death with increasing drug concentration
MCF-7 spheroids; with or without HUVEC co-culture, PTX 1, 100, 500 nM
  PI intensity of drug-treated spheroids, mono-culture versus co-culture: negligible differences in PI intensity
MCF-7 spheroids; with or without HUVEC co-culture, normalized to untreated group
  Spheroid Calcein-AM intensity (survival), co-culture versus mono-culture: trend of better survival of spheroids in co-cultures as compared to mono-culture, although no significant difference was observed
